Data: PubChem BioAssay AID2060512 (Molecular Pharmacology Branch, DTP, NCI, 2025)
pIC50: −log10 of the molar value.

Tested on: 186277-243-T-J2-PDC complex spheroid viability
Assay: Anticancer human tumor 186277-243-T-J2-PDC patient-derived colon adenocarcinoma cell line growth inhibition [GQUAD]
Details: for pIC50: curve of first compound; for viability, T/C: stronger effect = lower value
Procedure, shortened: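 Tumor cells were grown as complex spheroids with HUVEC endothelial cells and mesenchymal stem cells as stroma. G-quadruplex stabilizers were combined with targeted agents over half-log dilutions from near the clinical Cmax, or from 10 microM.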

[1] = second compound 0.0316 µM, first compound 0.0316 µM
[2] = second compound 0.0316 µM, first compound 0.1 µM
[3] = second compound 0.0316 µM, first compound 0.316 µM
[4] = second compound 0.0316 µM, first compound 1 µM
[5] = second compound 0.0316 µM, first compound 3.16 µM
[6] = second compound 0.0316 µM, first compound 10 µM
[7] = second compound 0.1 µM, first compound 0.0316 µM
[8] = second compound 0.1 µM, first compound 0.1 µM
[9] = second compound 0.1 µM, first compound 0.316 µM
[10] = second compound 0.1 µM, first compound 1 µM
[11] = second compound 0.1 µM, first compound 3.16 µM
[12] = second compound 0.1 µM, first compound 10 µM
[13] = second compound 0.316 µM, first compound 0.0316 µM
[14] = second compound 0.316 µM, first compound 0.1 µM
[15] = second compound 0.316 µM, first compound 0.316 µM
[16] = second compound 0.316 µM, first compound 1 µM
[17] = second compound 0.316 µM, first compound 3.16 µM
[18] = second compound 0.316 µM, first compound 10 µM
[19] = second compound 1 µM, first compound 0.0316 µM
[20] = second compound 1 µM, first compound 0.1 µM
[21] = second compound 1 µM, first compound 0.316 µM
[22] = second compound 1 µM, first compound 1 µM
[23] = second compound 1 µM, first compound 3.16 µM
[24] = second compound 1 µM, first compound 10 µM
[25] = second compound 3.16 µM, first compound 0.0316 µM
[26] = second compound 3.16 µM, first compound 0.1 µM
[27] = second compound 3.16 µM, first compound 0.316 µM
[28] = second compound 3.16 µM, first compound 1 µM
[29] = second compound 3.16 µM, first compound 3.16 µM
[30] = second compound 3.16 µM, first compound 10 µM
[31] = second compound 10 µM, first compound 0.0316 µM
[32] = second compound 10 µM, first compound 0.1 µM
[33] = second compound 10 µM, first compound 0.316 µM
[34] = second compound 10 µM, first compound 1 µM
[35] = second compound 10 µM, first compound 3.16 µM
[36] = second compound 10 µM, first compound 10 µM
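Further: spheroids exposed to drugs for 7 days.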
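Wherever viability, T/C is given: 100% = DMSO vehicle control viability.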

CC1COCCN1c1cc(C2(O)CC3CCC(C2)O3)c2cnn(-c3ccn[nH]3)c2n1 (stereo unspecified) + Cc1[nH]c2ccc(F)cc2c1-c1nc2c3cccnc3c3ncccc3c2[nH]1
pIC50 (second compound 0.0316 µM): 7.42
pIC50 (second compound 0.1 µM): 7.47
pIC50 (second compound 0.316 µM): > 7.50
pIC50 (second compound 1 µM): > 7.50
pIC50 (second compound 3.16 µM): > 7.50
pIC50 (second compound 10 µM): 7.48
viability, T/C [1]: 57.5%
viability, T/C [2]: 10.8%
viability, T/C [3]: 6.48%
viability, T/C [4]: 5.12%
viability, T/C [5]: 5.33%
viability, T/C [6]: 4.69%
viability, T/C [7]: 52.6%
viability, T/C [8]: 10.2%
viability, T/C [9]: 8.88%
viability, T/C [10]: 4.75%
viability, T/C [11]: 5.69%
viability, T/C [12]: 3.63%
viability, T/C [13]: 31.9%
viability, T/C [14]: 11.2%
viability, T/C [15]: 8.68%
viability, T/C [16]: 5.79%
viability, T/C [17]: 6.74%
viability, T/C [18]: 4.58%
viability, T/C [19]: 40.6%
viability, T/C [20]: 22.6%
viability, T/C [21]: 6.11%
viability, T/C [22]: 7.77%
viability, T/C [23]: 6.18%
viability, T/C [24]: 4.27%
viability, T/C [25]: 48.3%
viability, T/C [26]: 14.4%
viability, T/C [27]: 6.36%
viability, T/C [28]: 4.01%
viability, T/C [29]: 5.26%
viability, T/C [30]: 2.84%
viability, T/C [31]: 52%
viability, T/C [32]: 16.5%
viability, T/C [33]: 8.81%
viability, T/C [34]: 3.92%
viability, T/C [35]: 4.33%
viability, T/C [36]: 1.45%

CC(=O)O[C@H]1C(=O)[C@@]2(C)[C@H]([C@H](OC(=O)c3ccccc3)[C@]3(O)C[C@H](OC(=O)[C@H](O)[C@@H](NC(=O)c4ccccc4)c4ccccc4)C(C)=C1C3(C)C)[C@]1(OC(C)=O)CO[C@@H]1C[C@@H]2O + Cc1[nH]c2ccc(F)cc2c1-c1nc2c3cccnc3c3ncccc3c2[nH]1
pIC50 (second compound 0.0316 µM): > 7.50
pIC50 (second compound 0.1 µM): > 7.50
pIC50 (second compound 0.316 µM): > 7.50
pIC50 (second compound 1 µM): > 7.50
pIC50 (second compound 3.16 µM): > 7.50
pIC50 (second compound 10 µM): > 7.50
viability, T/C [1]: 15.7%
viability, T/C [2]: 4.95%
viability, T/C [3]: 6.22%
viability, T/C [4]: 4.92%
viability, T/C [5]: 4.75%
viability, T/C [6]: 4.49%
viability, T/C [7]: 15%
viability, T/C [8]: 5.55%
viability, T/C [9]: 4.93%
viability, T/C [10]: 4.7%
viability, T/C [11]: 4.6%
viability, T/C [12]: 4.6%
viability, T/C [13]: 15.1%
viability, T/C [14]: 5.62%
viability, T/C [15]: 4.72%
viability, T/C [16]: 4.93%
viability, T/C [17]: 5.02%
viability, T/C [18]: 4.65%
viability, T/C [19]: 12%
viability, T/C [20]: 5.43%
viability, T/C [21]: 4.8%
viability, T/C [22]: 4.59%
viability, T/C [23]: 4.91%
viability, T/C [24]: 4.25%
viability, T/C [25]: 11.6%
viability, T/C [26]: 5.28%
viability, T/C [27]: 4.81%
viability, T/C [28]: 3.9%
viability, T/C [29]: 5.02%
viability, T/C [30]: 4.07%
viability, T/C [31]: 12.4%
viability, T/C [32]: 5.2%
viability, T/C [33]: 3.75%
viability, T/C [34]: 3.85%
viability, T/C [35]: 4.46%
viability, T/C [36]: 3.46%

COc1cccc2c1C(=O)c1c(O)c3c(c(O)c1C2=O)CC(O)(C(=O)CO)CC3OC1CC(N)C(O)C(C)O1 (stereo unspecified) + CN(C)c1ccc(Nc2c3ccc(NC(=O)CCN4CCCC4)cc3nc3cc(NC(=O)CCN4CCCC4)ccc23)cc1
pIC50 (second compound 0.0316 µM): 6.41
pIC50 (second compound 0.1 µM): 6.43
pIC50 (second compound 0.316 µM): 6.51
pIC50 (second compound 1 µM): 6.55
pIC50 (second compound 3.16 µM): 6.42
pIC50 (second compound 10 µM): 6.36
viability, T/C [1]: 109%
viability, T/C [2]: 94.3%
viability, T/C [3]: 59.1%
viability, T/C [4]: 14.6%
viability, T/C [5]: 0.22%
viability, T/C [6]: 0.33%
viability, T/C [7]: 96.2%
viability, T/C [8]: 93.8%
viability, T/C [9]: 54.8%
viability, T/C [10]: 13%
viability, T/C [11]: 0.14%
viability, T/C [12]: 0.11%
viability, T/C [13]: 107%
viability, T/C [14]: 78.9%
viability, T/C [15]: 53.6%
viability, T/C [16]: 19.4%
viability, T/C [17]: 0.17%
viability, T/C [18]: 0.49%
viability, T/C [19]: 105%
viability, T/C [20]: 88.9%
viability, T/C [21]: 43.2%
viability, T/C [22]: 16.6%
viability, T/C [23]: 0.37%
viability, T/C [24]: 0.6%
viability, T/C [25]: 109%
viability, T/C [26]: 91%
viability, T/C [27]: 56.4%
viability, T/C [28]: 19.8%
viability, T/C [29]: 0.3%
viability, T/C [30]: 0.16%
viability, T/C [31]: 97.7%
viability, T/C [32]: 81.6%
viability, T/C [33]: 63.5%
viability, T/C [34]: 21.9%
viability, T/C [35]: 1.2%
viability, T/C [36]: 0.25%
